Results from patent publication US20070093436A1, “Drop1, a novel marker for carcinogenesis” (Deutsches Kresforschungszentrum Stiftung Des Offentlichen …, priority 2003, published 2007).

What was measured:
Type in all cases: cell-based, human
[1] = tested on: Drop1 mRNA in cell lines exhibiting a low level of Drop1 (GG and M130); assay: Treatment of cell lines exhibiting a low level of Drop1 with demethylating agents
Description: (§1) Treatment of cells with methyltransferase inhibitors was carried out as described by Widschwendter et al., J. Nat. Cancer Inst. 92 (2000), 826-832). All-trans-retinoic acid (ATRA) and 5-aza-deoxycytidine (Aza-CdR) were from Sigma Chemical Co. (St. Louis, Mo.). 1 mM solutions were prepared in dimethyl sulfoxide and diluted in culture medium. Cells were incubated either for 5 days, with […] Aza-CdR, for 24 h with […], or for 5 days with […] Aza-CdR followed by 24 h with 1 mM ATRA, or left untreated. They were detached with trypsin (0.05%)-EDTA (0.02%) in Dulbecco's phosphate-buffered saline (PBS), washed, and pelleted.
(§2) The possibility that promoter methylation might downregulate Drop1 was investigated.

[2] = tested on: Drop1 expression in M130 cells; assay: Treatment of cells with methyltransferase inhibitors, Drop1 expression by quantitative PCR
Description: (§3) The differential expression was validated by quantitative PCR and analyzed in the Agilent 2100 Bioanalyzer (Agilent Technologies, Waldbronn, Germany, PC Hewlett packard, Vectra VL, Hewlett packard, Boeblingen; Software Agilent 2100 Bio Sizing 1.3, Agilent Technologies, Waldbronn) or by semi-quantitative analysis of the resulting cDNA on a 2% agarose gel.
(§4) • 1 μl cDNA of the 20 μl RT-mixture (corresponding to 0.5 ng of cDNA); • 1 μl Drop1 Upper primer (5′ […] ATA 3′ corresponding to positions 8255-8278 in exon 53), 20 μM; • 1 μl Drop1 Lower primer (Lower primer 5′ […] 3′, complementary to positions 8500-8473 in exon 55), 20 μM; • 5 μl cDNA-PCR reaction buffer, 10×; • 1 μl dNTP-Mix, 10 mM; • 1 μl advantage-cDNA-polymerase mix, 50×;
(§5) Steps 1 to 3 were repeated 34 to 46 times. After individual cycles in that range, aliquots were removed and run on a gel. The amount of PCR-product from the first cycle producing a visible band of 246 bp was then quantitated using the Agilent system and an intercalating dye to detect double-stranded DNA. Under these conditions, quantitative PCR detected Drop1 plus enaptin, yet not cpg2, and the various nexins.
as §1, §2

[3] = tested on: Drop1 expression in GG cells; assay: as above
Description: as §3, §4, §5, §1, §2

[4] = tested on: Drop1 expression in SKOV-3 cells; assay: as above
Description: as §3, §4, §5, §1, §2

[5] = 5 days 2.5 mM Aza-CdR, 24 h 1 mM ATRA, or 5 days Aza-CdR followed by 24 h ATRA

CC1=C(/C=C/C(C)=C/C=C/C(C)=C/C(=O)O)C(C)(C)CCC1 [ATRA, all-trans-retinoic acid]
Increase of Drop1 mRNA [1]: an order of magnitude | Increase of Drop1 expression versus cells in medium [2]: 18 fold | Expression of downregulated Drop1 in cells treated with inhibitors of gene methylation [2, 5]: 1.8 × 10^−2 | Increase of Drop1 expression versus cells in medium [3]: 2.5 fold | Expression of downregulated Drop1 in cells treated with inhibitors of gene methylation [3, 5]: 1.3 × 10^−4 | Increase of Drop1 expression ([4]; SKOV-3, a cell line with a physiological level of Drop1): No increase of expression | Expression of downregulated Drop1 in cells treated with inhibitors of gene methylation ([4]; SKOV-3 cells, 5 days 2.5 mM Aza-CdR, 24 h 1 mM ATRA, or 5 days Aza-CdR followed by 24 h ATRA): 2.2 × 10^−4
